This series concerns tobacco budworm (Heliothis virescens). The settings on record: in vivo. On the procedure:
See Index Table A for compound descriptions. The following abbreviations are used in the Index Table that follows: n is normal, i is iso, Pr […], and Ph is phenyl. The abbreviation “Ex.” stands for “Example” and is followed by a number indicating in which example the compound is prepared.
Test units, each consisting of a H.I.S. (high impact styrene) tray with 16 cells were prepared. Wet filter paper and approximately 8 cm^2 of lima bean leaf were placed into twelve of the cells. A 0.5-cm layer of wheat germ diet was placed into the four remaining cells. Fifteen to twenty third-instar larvae of fall armyworm (Spodoptera frugiperda) were placed into a 230-mL (8-ounce) plastic cup. Solutions of each of the test compounds in 75:25 acetone-distilled water solvent were sprayed into the tray and cup. Spraying was accomplished by passing the tray and cup on a conveyer belt directly beneath a flat fan hydraulic nozzle which discharged the spray at a rate of 0.138 kilograms of active ingredient per hectare (about 0.13 pounds per acre) at 207 kPa (30 p.s.i.). The insects were transferred from the 230-mL cup to the H.I.S. tray (one insect per cell). The trays were covered and held at 27° C. and 50% relative humidity for 48 hours, after which time readings were taken on the twelve cells with lima bean leaves. The four remaining cells were read at 6-8 days for delayed toxicity.
The test procedure of TEST A was repeated for determining efficacy against third-instar larvae of the tobacco budworm (Heliothis virescens) except that three 230-mL (8-ounce) plastic cups with wheat germ diet were used in place of the H.I.S. tray, with each cup pre-infected with five third-instar larvae.

For `CCCC12Cc3cc(Cl)ccc3C1=NC(C(=O)Nc1ccc(Br)cc1)=NN2` (stereo not drawn) [Compound 2], the mortality levels is no less than 80%.
Regarding `CCCC12Cc3cc(Cl)ccc3C1=NC(C(=O)Nc1ccc(C(F)(F)F)cc1)=NN2C` (stereo not drawn) [Compound 5], the mortality levels is no less than 80%.
As for `CCCC12Cc3cc(Cl)ccc3C1=NC(C(=O)Nc1ccc(OC(F)(F)F)cc1)=NN2C` (stereo not drawn) [Compound 6], the mortality levels is no less than 80%.
`CCCC12Cc3cc(C(F)(F)F)ccc3C1=NC(C(=O)Nc1ccc(C(F)(F)F)cc1)=NN2C` (stereo not drawn) [Compound 7] had a mortality levels of no less than 80%.
In turn, `CCCC12Cc3cc(C(F)(F)F)ccc3C1=NC(C(=O)Nc1ccc(OC(F)(F)F)cc1)=NN2C` (stereo not drawn) [Compound 8] yielded a mortality levels of no less than 80%.
To `CN1N=C(C(=O)Nc2ccc(C(F)(F)F)cc2)N=C2c3ccc(C(F)(F)F)cc3CC21C` (stereo not drawn) [Compound 9] belongs no less than 80%; to `CN1N=C(C(=O)Nc2ccc(OC(F)(F)F)cc2)N=C2c3ccc(C(F)(F)F)cc3CC21C` (stereo not drawn) [Compound 10], no less than 80%.
To `CCCC12Cc3cc(C(F)(F)F)ccc3C1=NC(C(=O)Nc1ccc(C(F)(F)F)cc1)=NN2C(C)=O` (stereo not drawn) [Compound 11] belongs no less than 80%; to `CCCC12Cc3cc(C(F)(F)F)ccc3C1=NC(C(=O)Nc1ccc(OC(F)(F)F)cc1)=NN2C(C)=O` (stereo not drawn) [Compound 12], no less than 80%.
To `O=C(Nc1ccc(OC(F)(F)F)cc1)C1=NNC2(c3ccc(F)cc3)Cc3cc(F)ccc3C2=N1` (stereo not drawn) [Compound 13] belongs no less than 80%; to `CC12Cc3cc(F)ccc3C1=NC(C(=O)Nc1ccc(OC(F)(F)F)cc1)=NN2` (stereo not drawn) [Compound 14], no less than 80%.
Molecule `CC(C)C12Cc3cc(Cl)ccc3C1=NC(C(=O)Nc1ccc(OC(F)(F)F)cc1)=NN2` (stereo not drawn) [Compound 15] had a mortality levels of no less than 80%.
To `COC(=O)N1N=C(C(=O)Nc2ccc(OC(F)(F)F)cc2)N=C2c3ccc(F)cc3CC21c1ccc(F)cc1` (stereo not drawn) [Compound 16] belongs no less than 80%.
In turn, `CN1N=C(C(=O)Nc2ccc(OC(F)(F)F)cc2)N=C2c3ccc(F)cc3CC21C` (stereo not drawn) [Compound 17] had a mortality levels of no less than 80%.
As to `CN1N=C(C(=O)Nc2ccc(C(F)(F)F)cc2)N=C2c3ccc(F)cc3CC21C` (stereo not drawn) [Compound 19], the mortality levels was no less than 80%.
For the molecule `CCCC12Cc3cc(Cl)ccc3C1=NC(C(=O)Nc1ccc(SC(F)(F)F)cc1)=NN2` (stereo not drawn) [Compound 20], the mortality levels is listed as no less than 80%.
To `CCCC12Cc3cc(C(F)(F)F)ccc3C1=NC(C(=O)Nc1ccc(SC(F)(F)F)cc1)=NN2` (stereo not drawn) [Compound 21] belongs no less than 80%.
To `O=C(Nc1ccc(SC(F)(F)F)cc1)C1=NNC2(c3ccc(F)cc3)Cc3cc(F)ccc3C2=N1` (stereo not drawn) [Compound 22] belongs no less than 80%.

The values are drawn from patent publication US20030139397A1, “Arthropodicidal carboxanilides” (priority 2002, published 2003).
